Laboratory results from the METLIN SMRT retention time set (Domingo-Almenara et al. 2019).

assay: gradient 5% acetonitrile 3 min, to 50% in 2 min, to 85% in 15 min, held 3 min, 100 µL/min; conditions: column: Zorbax Extend-C18 2.1 x 50 mm; eluents: water / acetonitrile, 0.1% formic acid
Method in brief: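 A Zorbax Extend-C18 column (2.1 × 50 mm, 1.8 μm) run at 100 μL/min with water and acetonitrile, both containing 0.1% formic acid, separated mixtures of ~100 pure standards. The HPLC was coupled to a quadrupole time-of-flight mass spectrometer operated in positive and negative ionization mode, with dead and dwell volumes of 40 μL and 900 μL. Each retention time was taken from a computationally picked adduct peak that was then manually inspected.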

RP-LC retention time | SMILES
880 s | Cc1noc(C)c1S(=O)(=O)N1CCCn2nc(-c3cccs3)cc2C1
876 s | Cc1cccc(N2CCN([C@H]3CS(=O)(=O)C[C@@H]3S(=O)(=O)c3ccccc3)CC2)c1
838 s | CC(C)CN1CCn2cc(S(=O)(=O)Nc3ccc(F)cc3Cl)cc2C1=O
597 s | Cc1ccc(NC(=O)C2CCCN(c3cc(=O)n(C)c(=O)n3C)C2)nc1 (configuration not stated)
891 s | COc1ccccc1Nc1nc(-c2ccccc2)c(CC(=O)O)s1
676 s | COCCNC(=O)c1ccccc1-c1ocnc1C(=O)OC(C)C
693 s | O=C(NCC1CCCO1)c1nnn(-c2ccccc2Cl)c1-c1ccncc1 (configuration not stated)
877 s | O=C(NC1CCN(c2ccc(F)cc2)C1=O)c1ccc(F)c(Cl)c1 (configuration not stated)
1010 s | Cc1nc(-c2cc(S(=O)(=O)NCc3ccc(F)c(Cl)c3)c(C)s2)cs1
1270 s | CSc1ccc(NC(=O)c2c(C)oc3ccn(Cc4ccc(F)cc4)c(=O)c23)cc1
841 s | COC1CCC12CCN(C(=O)C1CCCC1)CC2 (configuration not stated)
1260 s | COc1cc(Cl)c(NC(=O)C2CCCN(c3nccnc3Sc3ccc(C)cc3)C2)c(OC)c1 (configuration not stated)
670 s | COc1ccc2nc(C)cc(NCCCCCCCCCNc3cc(C)nc4ccc(OC)cc34)c2c1
895 s | C=CCn1c(SCC(=O)NCC2CCCO2)nc2scc(-c3ccc(C)o3)c2c1=O (configuration not stated)
653 s | COc1ccc(NC(=O)COc2cc(C)nc(N3CCCC3)n2)cc1Cl
1220 s | CCc1cc(=O)n(CC(=O)Nc2cccc(Cl)c2)c(-c2ccccc2)n1
577 s | Fc1cccc(-c2nc(Cn3ccnc3)no2)c1
1010 s | CC1CCCN(c2ccc(-c3noc(CN4CCN(c5ccccc5)CC4)n3)cn2)C1 (configuration not stated)
586 s | CCn1c(=O)c(C(=O)NCCCc2ccccc2)nc2cccnc21
612 s | Cc1ccc2c(c1)C(C)(C)C(=O)N2CC(=O)NCc1cccnc1
885 s | CCOC(=O)CC1(NC(=O)NCC(=O)N2CCc3ccccc32)CCCCC1
883 s | CCCn1cc(SCC(=O)Nc2cc(C)on2)c2ccccc21

RP-LC retention time | SMILES
767 s | Cc1noc(C2CN(S(=O)(=O)c3ccccc3)CC23CCOCC3)n1 (configuration not stated)
685 s | CNC(=O)C1CCCN(c2nc3ncn(CC(=O)NCCC4=CCCCC4)c(=O)c3s2)C1 (configuration not stated)
787 s | Cc1ccc(C)c(S(=O)(=O)N2CCC3(CC2)NCCN=C3NCc2ccccc2C)c1
1090 s | O=c1ccc(-c2ccccc2)nn1Cc1nc(-c2cccc(Br)c2)no1
912 s | CCN1c2ccc(C)cc2C(=O)NC12CCN(C(=O)c1cc(C)cc(C)c1)CC2
1100 s | COC(=O)c1c(C)c(C(=O)C(C)N(CCC(C)C)C(=O)c2cccc(F)c2)c(C)n1C (configuration not stated)
642 s | CCCNC(=O)C1CCCN(c2ccc(SCC(=O)Nc3ccc4c(c3)OCO4)nn2)C1 (configuration not stated)
598 s | CC(C)CCn1c(CCCC(=O)N2CCC(C(N)=O)CC2)nc2cccnc21
1030 s | CC1CCN(S(=O)(=O)c2ccc3nn(Cc4c(F)cccc4Cl)c(=O)n3c2)CC1
681 s | O=C(O)c1cccn2c(=O)c3cc(F)ccc3nc12
646 s | O=C(CNC(=O)c1cccc(Cl)c1)Nc1nc2ccccc2[nH]1
693 s | CNC(=O)C1(C)CC(c2ccccc2)=NO1 (configuration not stated)
568 s | Cc1ccnc(N2CCC(C(=O)NCCCN3CCCC(C)C3)CC2)n1 (configuration not stated)
728 s | COCCCNC(=O)c1nc2cccnc2n(CC(C)C)c1=O
968 s | COc1cc(C(=O)N(Cc2ccc(C(C)C)cc2)C2CCS(=O)(=O)C2)cc(OC)c1OC (configuration not stated)
609 s | COc1ccc(C(CC(=O)N2CCN(C)CC2)N2Cc3ccccc3C2=O)cc1OC (configuration not stated)
737 s | COc1ccccc1C(=O)N1C[C@H](c2nc(-c3ccncc3)no2)[C@@H](C)C1
1190 s | COc1ccc(-c2noc(CCCC(=O)Nc3nc(-c4ccc(Cl)cc4)c(C)s3)n2)cc1
654 s | COc1ccc(-c2nc3ccc(C4=NNC(=O)CC4C)cc3[nH]2)cc1 (configuration not stated)
668 s | Nc1cc(C2CCN(C(=O)Nc3ccc(F)cc3)CC2)no1
1130 s | CCc1nc(-c2cc(S(=O)(=O)Nc3ccccc3Br)c(C)s2)cs1
945 s | CCNC(=O)N1CC(Oc2ccc(-c3nc(-c4ccccc4)no3)cc2)C1

RP-LC retention time | SMILES
1150 s | O=C(Nc1ccccc1)N1CC(Oc2ccc(-c3nc(-c4ccccc4)no3)cc2)C1
763 s | CC(=O)N1CCc2cc(CNS(=O)(=O)c3ccccc3Cl)ccc21
652 s | O=C(CSc1ccc(NC(=O)C2CC2)nn1)NCc1cccs1
796 s | CN1CCN(c2cc(-c3nc(-c4ccccc4)no3)c3ccccc3n2)CC1
820 s | O=C(Nc1ccccc1)N1CCCC(c2nnnn2-c2ccccc2)C1 (configuration not stated)
581 s | O=C1CCN(C(=O)c2cccs2)CCCC(CO)CCN1 (configuration not stated)
659 s | Cn1c(=O)n(C)c2cc(N3CCCCC3)c(NC(=O)NCc3ccc(F)cc3)cc21
902 s | O=C(NC1CCCCC1)C1CCN(S(=O)(=O)c2cc(C(=O)N3CCCCCC3)cs2)CC1
1070 s | Cc1ccc(C)c(N2CCN(C(=O)C3CCN(S(=O)(=O)c4cccc5nsnc45)CC3)CC2)c1
856 s | COc1ccc(-c2noc(CSc3nccn3-c3ccc(C)cc3)n2)cc1OC
914 s | O=C(Nc1nc2c(s1)CCc1ccccc1-2)Nc1c(F)cccc1F
580 s | CNC(=O)c1cc(C)nc2ccc(F)cc12
655 s | Cc1ccccc1Cc1c(C)nc2nc(SCC(=O)NCCN3CCOCC3)nn2c1C
1220 s | O=[N+]([O-])c1cccnc1Oc1cc(Cl)c(Cl)cc1Cl
844 s | CCN1C(=O)c2cccnc2Sc2cc(NC(=O)c3cccc(F)c3)ccc21
966 s | Cc1ccccc1NS(=O)(=O)c1c(C)c(-c2nnc(C3CCC3)o2)n(C)c1C
676 s | CCOC(=O)C1CCC(CNC(=O)N2CCN(Cc3nc4ccccc4o3)CC2)CC1 (configuration not stated)
652 s | CCOC(=O)N1CCN(C(=O)Cn2cnc(-c3ccc(OC)cc3)cc2=O)CC1
847 s | Cc1c(OC(C)C(=O)O)ccc2c1oc(=O)c1ccccc12 (configuration not stated)
607 s | CCOC(=O)CCNC(=O)N1CCC(OC2CCN(Cc3ccccc3)CC2)CC1
828 s | Cc1ccc(NC(=O)Cn2nc(C(=O)N3CCCC3)c3ccccc32)cc1C
614 s | Cc1ccnc(NC(=O)C2CCCN(S(=O)(=O)c3c[nH]c(C(=O)N4CCCC4)c3)C2)c1 (configuration not stated)

SMILES | RP-LC retention time
O=C(COc1ccc(F)cc1)N1CCN2CCS(=O)(=O)N(C3CC3)C(=O)C2C1 (configuration not stated) | 773 s
